Data reported in US20200339651A1, “METHODS FOR B CELL PRECONDITIONING IN CAR THERAPY” (Novartis AG, priority 2014, published 2020).

How the values were obtained:
[1] = Pharmacokinetics of RAD001 in the blood of NSG mice with NALM6 tumors; assay type: in vivo
Experimental: Diamonds denote the […] dose of RAD001; squares denote the 1 mg/kg dose of RAD001; triangles denote the 3 mg/kg dose of RAD001; and x's denote the 10 mg/kg dose of RAD001.
(§1) A concentrated micro-emulsion of 50 mg equal to 1 mg RAD001 was formulated and then resuspended in D5W (dextrose 5% in water) at the time of dosing. Mice were orally dosed daily (via oral gavage) with 200 μl of the desired doses of RAD001.
Mice were dosed daily with RAD001 starting 7 days post tumor implantation. Dosing groups were as follows: 0.3 mg/kg, 1 mg/kg, 3 mg/kg, and 10 mg/kg. Mice were bled on days 0 and 14 following the first and last dose of RAD001, at the following time points for PK analysis: 15 minutes, 30 minutes, 1 hour, 2 hours, 4 hours, 8 hours, 12 hours, and 24 hours.

huCART19 cells = assay: CART proliferation in 4 day co-culture with Nalm-6 cells in the presence of RAD001; assay type: cell-based, human
Excerpt: A humanized, anti-human CD19 CAR (huCART19) lentiviral transfer vector was used to produce the genomic material packaged into VSVg pseudotyped lentiviral particles. The amino acid and nucleotide sequence of the humanized anti-human CD19 CAR (huCART19) is CAR 1, ID 104875 described in PCT publication, WO2014/153270, filed Mar. 15, 2014, and is designated SEQ ID NOs. 85 and 31 therein.
Lentiviral transfer vector DNA is mixed with the three packaging components VSVg env, gag/pol and rev in combination with lipofectamine reagent to transfect Lenti-X 293T cells. Medium is changed after 24 h and 30 h thereafter, the virus-containing media is collected, filtered and stored at −80° C. CARTs are generated by transduction of fresh or frozen naïve T cells obtained by negative magnetic selection of healthy donor blood or leukopak. T cells are activated by incubation with anti-CD3/anti-CD28 beads for 24 h, after which viral supernatant or concentrated virus (MOI=2 or 10, respectively) is added to the cultures. The modified T cells are allowed to expand for about 10 days. The percentage of cells transduced (expressing the CARs on the cell surface) and the level of CAR expression (relative fluorescence intensity, Geo Mean) are determined by flow cytometric analysis between days 7 and 9. The combination of slowing growth rate and T cell size approaching ˜350 fL determines the state for T cells to be cryopreserved for later analysis.
To evaluate the functionality of CARTs, the T cells are thawed and counted, and viability is assessed by Cellometer. The number of CAR-positive cells in each culture is normalized using non-transduced T cells (UTD). The impact of RAD001 on CARTs was tested in titrations with RAD001, starting at 50 nM. The target cell line used in all co-culture experiments is Nalm-6, a human pre-B cell acute lymphoblastic leukemia (ALL) cell line expressing CD19 and transduced to express luciferase.
For measuring the proliferation of CARTs, T cells are cultured with target cells at a ratio of 1:1. […] The number of T cells is assessed by flow cytometry using counting beads as reference.

NALM6-luc tumors = assay: NALM6-luc tumor growth in NSG mice with daily RAD001 dosing; assay type: in vivo; settings: daily oral dosing of RAD001 alone at 0.3, 1, 3, and 10 mg/kg
Experimental: FIG. 8 depicts tumor growth measurements of NALM6-luc cells with daily RAD001 dosing at 0.3, 1, 3, and 10 mg/kg (mpk) or vehicle dosing. Circles denote the vehicle; squares denote the 10 mg/kg dose of RAD001; triangles denote the 3 mg/kg dose of RAD001, inverted triangles denote the 1 mg/kg dose of RAD001; and diamonds denote the 0.3 mg/kg dose of RAD001.
The NALM6 human acute lymphoblastic leukemia (ALL) cell line was developed from the peripheral blood of a patient with relapsed ALL. The cells were then tagged with firefly luciferase. These suspension cells grow in RPMI supplemented with 10% heat inactivated fetal bovine serum.
6 week old NSG (NOD.Cg-Prkdc^scidIl2rg^tm1Wjl/SzJ) mice were received from the Jackson Laboratory (stock number 005557).
NALM6-luc cells were grown and expanded in vitro in RPMI supplemented with 10% heat inactivated fetal bovine serum. The cells were then transferred to a 15 ml conical tube and washed twice with cold sterile PBS. NALM6-luc cells were then counted and resuspended at a concentration of 10×10^6 cells per milliliter of PBS. The cells were placed on ice and immediately (within one hour) implanted in the mice. NALM6-luc cells were injected intravenously via the tail vein in a 100 μl volume, for a total of 1×10^6 cells per mouse. […]

huCAR19 CAR T cells = assay: In vivo proliferation of humanized CD19 CART cells with and without RAD001 dosing; parameters: species or system NSG mice
Experimental: Circles denote PBS; squares denote huCTL019; triangles denote huCTL019 with 3 mg/kg RAD001; inverted triangles denote huCTL019 with 0.3 mg/kg RAD001; diamonds denote huCTL019 with 0.03 mg/kg RAD001; and circles denote huCTL019 with 0.003 mg/kg RAD001.
Mice were administered 5×10^6 CAR T cells 7 days after tumor implantation. Cells were partially thawed in a 37 degree Celsius water bath and then completely thawed by the addition of 1 ml of cold sterile PBS to the tube containing the cells. The thawed cells were transferred to a 15 ml falcon tube and adjusted to a final volume of 10 mls with PBS. The cells were washed twice at 1000 rpm for 10 minutes each time and then counted on a hemocytometer. T cells were then resuspended at a concentration of 50×10^6 CAR T cells per ml of cold PBS and kept on ice until the mice were dosed. The mice were injected intravenously via the tail vein with 100 μl of the CAR T cells for a dose of 5×10^6 CAR T cells per mouse. Eight mice per group were treated either with 100 μl of PBS alone (PBS), or humanized CD19 CAR T cells.
as §1
Based on these doses, huCAR19 CAR T cells were dosed with and without RAD001 to determine the proliferative ability of these cells. The highest dose used was 3 mg/kg based on the levels of RAD001 in the blood 24 hours after dosing. As the concentration of RAD001 was above 10 nM 24 hours after the final dose of RAD001, several lower doses of RAD001 were used in the in vivo study with CAR T cells. The CAR T cells were dosed IV one day prior to the start of the daily oral RAD001 dosing. Mice were monitored via FACS for T cell expansion.

Compound: CO[C@H]1C[C@@H]2CC[C@@H](C)[C@@](O)(O2)C(=O)C(=O)N2CCCC[C@H]2C(=O)O[C@H]([C@H](C)C[C@@H]2CC[C@@H](OCCO)[C@H](OC)C2)CC(=O)[C@H](C)/C=C(\C)[C@@H](O)[C@@H](OC)C(=O)[C@H](C)C[C@H](C)/C=C/C=C/C=C/1C [RAD001, (1R,9S,12S,15R,16E,18R,19R,21R,23S,24E,26E,28E,30S,32S,35R)-1,18-dihydroxy-12-{(1R)-2-[(1S,3R,4R)-4-(2-hydroxyethoxy)-3-methoxycyclohexyl]-1-methylethyl}-19,30-dimethoxy-15,17,21,23,29,35-hexamethyl-11,36-dioxa-4-aza-tricyclo[30.3.1.04,9]hexatriaconta-16,24,26,28-tetraene-2,3,10,14,20-pentaone]
- concentration of RAD001 ([1]; 24 hours after the final dose of RAD001): above 10 nM
- concentration at 24 h ([1]; NSG, mouse, whole blood, day 0, 24 hours after dosing, lowest dose tested (0.3 mg/kg), oral): > 10 nM
- RAD001 concentration in the blood ([1]; day 14, 24 hours after dosing, lowest dose tested (0.3 mg/kg), oral): above 10 nm
- stability in the blood ([1]; tumor bearing mice): fairly stable
- proliferation of huCART19 cells compared with no RAD001 (huCART19 cells; 0.0032 and 0.016 nM RAD001, 4 day co-culture with Nalm-6): proliferation was higher than observed without the addition of RAD001
- expansion of huCART19 cells (huCART19 cells; less than 0.016 nM of RAD001, 4 day co-culture with Nalm-6, 1:1): expanded
- proliferation of CAR-expressing, transduced T cells (huCART19 cells; low doses of RAD001, cell culture system): enhanced
- growth of NALM6-luc tumors (NALM6-luc tumors): did not have an impact
- CAR T cell proliferation in vivo (huCAR19 CAR T cells; RAD001 0.003 mg/kg daily, huCTL019): enhancement in CAR T cell proliferation, above the normal level of huCAR19 proliferation
- enhanced proliferation of CD4+ CAR T cells compared with CD8+ CAR T cells (huCAR19 CAR T cells; lowest doses of RAD001): more evident and prolonged
- proliferation of CD8+ CAR T cells (huCAR19 CAR T cells; lowest doses of RAD001): enhanced proliferation can be seen at early time points
- proliferation of the CAR T cells in vivo (huCAR19 CAR T cells; lowest doses of RAD001, daily oral): enhanced proliferation
